In patent US12275733B2, “Substituted pyrido[3,4-b]indoles for the treatment of cartilage disorders” (Sanofi, priority 2016, dated 2025):

Tested on: ATDC5 cells
Experiment: Chondrogenesis activity assay in ATDC5 cells (collagen type II induction, immunofluorescence)
Type: cell-based, mouse
Conditions: Mus musculus; for EC50: collagen type II induction in ATDC5 cells, concentration reaching 50% of maximum induction; for Emax: maximum percent induction of collagen type II relative to internal reference compound at 10 μM, ATDC5 cells
Outline: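 Mouse ATDC5 cells in insulin (10 μg/ml)-containing DMEM/F12 differentiation medium with 5% FCS were exposed to compound, typically 40 nM–10 μM at 0.1% DMSO, for 4 days at 37 °C. Intracellular collagen type II was quantified by Alexa Fluor 488 immunostaining with high-content imaging, relative to DMSO and a 10 μM reference compound.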

EC50 [µM] | SMILES | Emax [%]
0.86 | FC(F)(F)Cn1c2cnccc2c2cc(Cl)cc(-c3ccc(Cl)cc3)c21 [Example 129, 6-Chloro-8-(4-chloro-phenyl)-9-(2,2,2-trifluoro-ethyl)-9H-pyrido[3,4-b]indole] | > 80
0.25 | Cc1nccc2c1[nH]c1c(-c3ccc(C=O)cc3)cc(Cl)cc12 [Example 31, 4-(6-Chloro-1-methyl-9H-pyrido[3,4-b]indol-8-yl)-benzaldehyde] | > 80
0.78 | COc1ccc(-c2cc(Cl)cc3c2[nH]c2c(C)nccc23)c(N)n1 [Example 113, 3-(6-Chloro-1-methyl-9H-pyrido[3,4-b]indol-8-yl)-6-methoxy-pyridin-2-ylamine] | > 80
1 | Cc1nccc2c1[nH]c1c(-c3ccc(C#N)nc3)cc(Cl)cc12 [Example 100, 5-(6-Chloro-1-methyl-9H-pyrido[3,4-b]indol-8-yl)-pyridine-2-carbonitrile] | < 20
0.22 | Cc1nccc2c1[nH]c1c(-c3ccc(OCC4(C)COC4)cc3)cc(Cl)cc12 [Example 182, 6-Chloro-1-methyl-8-[4-(3-methyl-oxetan-3-ylmethoxy)-phenyl]-9H-pyrido[3,4-b]indole] | > 80
1 | CCn1c2c(-c3ccncc3)cc(Cl)cc2c2ccnc(C)c21 [Example 125, 6-Chloro-9-ethyl-1-methyl-8-pyridin-4-yl-9H-pyrido[3,4-b]indole] | > 80
0.38 | Cc1nccc2c1[nH]c1c(-c3ccncc3)cc(Cl)cc12 [Example 130, 6-Chloro-1-methyl-8-pyridin-4-yl-9H-pyrido[3,4-b]indole] | > 80
0.48 | CCn1c2cnccc2c2cc(Cl)cc(-c3ccccc3Cl)c21 [Example 145, 6-Chloro-8-(2-chloro-phenyl)-9-ethyl-9H-pyrido[3,4-b]indole] | < 20
0.58 | Cc1nccc2c1[nH]c1c(-c3ccc(Cl)nc3)cc(Cl)cc12 [Example 77, 6-Chloro-8-(6-chloro-pyridin-3-yl)-1-methyl-9H-pyrido[3,4-b]indole] | > 80
2.1 | Cc1nc(Cl)ccc1-c1cc(Cl)cc2c3ccncc3n(CC(F)(F)F)c12 [Example 83, 6-Chloro-8-(6-chloro-2-methyl-pyridin-3-yl)-9-(2,2,2-trifluoro-ethyl)-9H-pyrido[3,4-b]indole] | 20 to 50
1.9 | Cc1nccc2c1[nH]c1c(-c3ccc(Cl)c(C#N)c3Cl)cc(Cl)cc12 [Example 158] | > 80
0.42 | CCn1c2c(-c3cnn(CC4OCCO4)c3)cc(Cl)cc2c2ccnc(C)c21 [Example 276, 6-Chloro-8-(1-[1,3]dioxolan-2-ylmethyl-1H-pyrazol-4-yl)-9-ethyl-1-methyl-9H-pyrido[3,4-b]indole] | > 80
3.9 | Cc1nccc2c1[nH]c1c(-c3ccc(Cl)nc3Cl)cc(Cl)cc12 [Example 64, 6-Chloro-8-(2,6-dichloro-pyridin-3-yl)-1-methyl-9H-pyrido[3,4-b]indole] | > 80
2.2 | CCn1c2c(-c3ccn(Cc4cccnc4C)n3)cc(Cl)cc2c2ccnc(C)c21 [Example 6, 6-Chloro-9-ethyl-1-methyl-8-[1-(2-methyl-pyridin-3-ylmethyl)-1H-pyrazol-3-yl]-9H-pyrido[3,4-b]indole] | 50 to 80
> 10 | COc1ccc(-c2cc(Cl)cc3c2[nH]c2c(C)nccc23)c(OC)c1OC [Example 178, 6-Chloro-1-methyl-8-(2,3,4-trimethoxy-phenyl)-9H-pyrido[3,4-b]indole] | 20 to 50
0.28 | Cc1nccc2c1[nH]c1c(-c3ccc(OCC(O)CN4CCCCC4)cc3)cc(Cl)cc12 (centres unmarked) [Example 229, 1-[4-(6-Chloro-1-methyl-9H-pyrido[3,4-b]indol-8-yl)-phenoxy]-3-piperidin-1-yl-propan-2-ol] | 50 to 80
